Patent publication US20180325909A1, “COMBINATION TREATMENT OF SPECIFIC FORMS OF EPILEPSY” (ZOGENIX INTERNATIONAL LIMITED, priority 2015, published 2018)
Entries after “also recorded” stand apart in the source; their conditions may differ. Read-outs that look alike come from different tables or passages of the source.

What was measured:
Dravet syndrome patients [1] = details: Chiron et al. 2011; cited from earlier work
[2] = test system: homozygous scn1Lab−/− mutants; format: in vivo, Danio rerio; details: for locomotor-reducing activity of functional analogs: at MTC, in most cases observed after short and long treatment; for activity in the Zebrafish model of epilepsy: following both acute and chronic application
Procedure: (§1) Zebrafish embryos (Danio rerio) heterozygous for the scn1Lab mutation (scn1Lab+/−) were backcrossed with Tupfel longfin wildtype (WT scn1Lab+/+). Adult zebrafish were housed at 28.0° C., on a 14/10 hour light/dark cycle under standard aquaculture conditions. Fertilized eggs were collected via natural spawning. Anaesthetized fish (tricaine 0.02%) were fin-clipped and genotyped by PCR. After genotyping, samples were purified (MinElute PCR Purification Kit) and sequenced by LGC Genomics. Age-matched Tupfel longfin wildtype larvae were used as control group (WT scn1Lab+/+).
(§2) To evaluate the locomotor activity of homozygous scn1Lab−/− mutants and control WT scn1Lab+/+, zebrafish larvae were placed in a 96-well plate in 100 μL of embryo medium from 4 to 8 dpf. Each day the larvae were tracked in an automated tracking device (ZebraBox™ apparatus; Viewpoint, Lyon, France) for 10 min after 30 min habituation (100-second integration interval). All recordings were performed at the same time during daytime period. The total distance in large movements was recorded and quantified using ZebraLab™ software (Viewpoint, Lyon, France). Data were pooled together from at least three independent experiments with at least 24 larvae per condition.
(§3) Scn1Lab−/− mutants and WT scn1Lab+/+ larvae were arrayed in the same plate and treated at 6 days post fertilization (dpf) with fenfluramine (25 μM), functional analogs (at their MTC) or VHC in individual wells of a 96-well plate. After incubation at 28° C. on a 14/10 hour light/dark cycle and 30-min chamber habituation 6 and 7 dpf larvae were tracked for locomotor activity for 10 min (100-second integration interval) under dark conditions. An incubation time of 1.5 hours is further referred as short treatment (6 dpf). Furthermore these larvae were analyzed after more than 22 hours incubation (7 dpf), i.e. long treatment. The total locomotor activity was quantified using the parameter lardist and plotted in cm. Data were pooled together from two (5-HT1B-, 5-HT1F-, 5-HT3-, 5-HT4-, 5-HT5A-, 5-HT6-agonist and all antagonists except 5-HT1B- and 5-HT7-antagonists) or three (fenfluramine, 5-HT1A-, 5-HT1D-, 5-HT1E-, 5-HT2A-, 5-HT2B-, and 5-HT2C-agonist) independent experiments with at least 9 larvae per treatment condition.

[3] = test system: homozygous scn1Lab−/− mutants; format: in vivo, Danio rerio; details: for reduction of epileptiform activity (in words, compared with fenfluramine): long treatment at MTC (5-HT2B-agonist 3.125 μM), at least frequency and mean cumulative duration
Procedure: Epileptiform activity was measured by open-field recordings in the zebrafish larval forebrain at 7 dpf. Homozygous scn1Lab−/− mutants and control WT scn1Lab+/+ were embedded in 2% low-melting-point agarose (Invitrogen) to position a glass electrode into the forebrain. […] Single recordings were performed for 10 min. […] Spontaneous epileptiform events were taken into account when the amplitude exceeded three times the background noise and lasted longer than 50 milliseconds (ms).
Epileptiform activity was measured by open-field recordings in the zebrafish larval forebrain at 7 dpf, as described above. […] Recordings of 7 dpf larvae, from at least 8 scn1Lab−/− mutant larvae were taken per experimental condition. […] Electrographic recordings were quantified for the different treatment conditions.

5-HT2C receptor = target: T1, 5-HT2C receptor (Homo sapiens, UniProt P28335); details: cited from earlier work
T1 sequence (P28335 33-458): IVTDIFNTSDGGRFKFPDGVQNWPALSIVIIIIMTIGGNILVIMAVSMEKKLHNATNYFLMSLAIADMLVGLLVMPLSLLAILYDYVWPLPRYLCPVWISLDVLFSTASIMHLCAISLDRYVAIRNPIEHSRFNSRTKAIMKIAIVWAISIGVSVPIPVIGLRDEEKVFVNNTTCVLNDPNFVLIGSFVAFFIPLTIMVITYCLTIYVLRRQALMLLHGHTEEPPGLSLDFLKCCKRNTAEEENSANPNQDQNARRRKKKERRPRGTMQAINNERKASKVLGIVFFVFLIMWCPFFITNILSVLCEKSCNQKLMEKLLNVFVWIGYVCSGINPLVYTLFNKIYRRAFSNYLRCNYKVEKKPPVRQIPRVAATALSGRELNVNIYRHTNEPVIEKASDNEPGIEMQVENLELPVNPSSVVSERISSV

WT scn1Lab+/+ larvae = test: Locomotor activity of age-matched wildtype zebrafish larvae; format: in vivo, Danio rerio; details: 'with exception of' means the compound did decrease wildtype activity
Procedure: as §1, §2
as §3, with “Data were pooled together from two (5-HT1B-, 5-HT1F-, 5-HT3-, 5-HT4-, 5-HT5A-, 5-HT6-agonist and all antagonists except 5-HT1B- and 5-HT7-antagonists) or three (fenfluramine, 5-HT1A-, 5-HT1D-, 5-HT1E-, 5-HT2A-, 5-HT2B-, and 5-HT2C-agonist) independent experiments with at least 9 larvae per treatment condition.” left out

Dravet syndrome patients [4] = details: long term treatment with fenfluramine 0.12-0.90 mg/kg/day; Ceulemans et al. 2012; cited from earlier work
scn1Lab−/− larvae = test: Fenfluramine combined with 5-HT subtype antagonists, locomotor activity of scn1Lab-/- larvae; format: in vivo, Danio rerio; details: antagonist plus fenfluramine
Procedure: as §3
No highly specific 5-HT1E-antagonist is currently available so it was impossible to explore this 5-HTsubtype receptor in the current assay (Leung, 2009).

[5] = long treatment, fenfluramine 25 μM, 7 dpf

NC(=O)N1c2ccccc2C=Cc2ccccc21 [carbamazepine]
patients with worsening of symptoms (Dravet syndrome patients [1]): ~60%

C[C@H]1CNCCc2ccc(Cl)cc21.Cl [lorcaserin, (1R)-8-chloro-1-methyl-2,3,4,5-tetrahydro-1H-3-benzazepine]
locomotor-reducing activity of functional analogs [2]: locomotor-reducing activity | activity in the Zebrafish model of epilepsy [2]: high levels of activity | reduction of epileptiform activity (in words, compared with fenfluramine) ([3]; 7 dpf): comparable effects | affinity for the 5-HT2C receptor vs. the 5-HT2B (5-HT2C receptor): 100 ×

CC(N)Cc1c[nH]c2ccc(OCc3cccs3)cc12 (centres unmarked) [5-HT2B agonist]
activity in the Zebrafish model of epilepsy [2]: did not show any activity

O=C1Nc2ccc(Cl)cc2[C@@](C#CC2CC2)(C(F)(F)F)O1 [efavirenz, (4S)-6-chloro-4-(2-cyclopropylethynyl)-4-(trifluoromethyl)-1H-3,1-benzoxazin-2-one]
inhibition of locomotor activity in mutant fish embryos (Example 2) ([2]; tested at MTC): potent inhibitors | inhibition of epileptiform activity in mutant fish embryos (Example 2) ([3]; tested at MTC): potent inhibitors

Cc1nn(C)c(C)c1-c1cccc2c1CC[C@H](N(C)C)C2 [5-HT7-agonist, (2S)-(+)-5-(1,3,5-Trimethylpyrazol-4-yl)-2-(dimethylamino)tetralin]
locomotor-reducing activity of functional analogs [2]: locomotor-reducing activity | activity in the Zebrafish model of epilepsy [2]: high levels of activity

CN1C[C@H](C(=O)N[C@]2(C)O[C@@]3(O)[C@@H]4CCCN4C(=O)[C@H](Cc4ccccc4)N3C2=O)C=C2c3cccc4[nH]cc(c34)C[C@H]21 [ergotamine, (6aR,9R)—N-((2R,5S,10aS,10bS)-5-benzyl-10b-hydroxy-2-methyl-3,6-dioxooctahydro-2H-oxazolo[3,2-a]pyrrolo[2,1-c]pyrazin-2-yl)-7-methyl-4,6,6a,7,8,9-hexahydroindolo[4,3-fg] quinoline-9-carboxamide]
locomotor-reducing activity of functional analogs [2]: interesting activity | locomotor-reducing activity of functional analogs ([2]; listed as 5-HT5A-agonist): locomotor-reducing activity | activity in the Zebrafish model of epilepsy [2]: high levels of activity | locomotor activity in wildtype larvae (WT scn1Lab+/+ larvae): did not decrease the locomotor activity

COc1ccc(CNC(=O)/C=C/c2ccc3[nH]cc(CCN(C)C)c3c2)cc1 [5-HT1D-agonist, 3-[3-(2-Dimethylaminoethyl)-1H-indol-5-yl]-N-(4-methoxybenzyl)acrylamide]
locomotor-reducing activity of functional analogs [2]: locomotor-reducing activity | activity in the Zebrafish model of epilepsy [2]: high levels of activity | locomotor activity in wildtype larvae (WT scn1Lab+/+ larvae): did not decrease the locomotor activity | reduction of epileptiform activity (in words, compared with fenfluramine) ([3]; 7 dpf): comparable effects

CCNC(C)Cc1cccc(C(F)(F)F)c1 (centres unmarked) [fenfluramine]
activity in the Zebrafish model of epilepsy [2]: high levels of activity | locomotor activity after long treatment ([2]; long treatment (22 h), fenfluramine 25 μM, 7 dpf, p<0.0001): lowers locomotor activity; also recorded: significantly decreased | reduction of epileptiform activity (in words, compared with fenfluramine) ([3]; 7 dpf): anti-epileptiform activity | frequency of epileptiform events [3, 5]: 1.7±0.4046 events/10-min recording | mean cumulative duration of epileptiform events [3, 5]: 200.8±50.38 ms/10-min recording | mean duration of epileptiform events [3, 5]: 85.11±18.28 ms/10-min recording | patients seizure-free (Dravet syndrome patients [4]): 70%

O=C(c1ccc(F)cc1)C1CCN(CCn2c(=O)[nH]c3ccccc3c2=O)CC1 [5-HT2A-antagonist, ketaserine]
counteraction of the fenfluramine-elicited decrease in locomotor activity, long treatment (scn1Lab−/− larvae; long treatment, p<0.05): not after a long treatment | effect of antagonist on the fenfluramine-elicited decrease in large movements (scn1Lab−/− larvae; treatment time not stated): not seen

Nc1nnc(-c2cccc(Cl)c2Cl)c(N)n1 [lamotrigine]
patients with worsening of symptoms (Dravet syndrome patients [1]): up to 80%

CN1CCC(c2c[nH]c3ccc(O)cc23)CC1 [5-HT1E-agonist, 1H-Indol-5-ol, 3-(1-methyl-4-piperidinyl)-]
locomotor-reducing activity of functional analogs [2]: locomotor-reducing activity | locomotor activity in wildtype larvae (WT scn1Lab+/+ larvae): did not decrease the locomotor activity | reduction of epileptiform activity (in words, compared with fenfluramine) ([3]; 7 dpf): not able to reduce epileptiform activity

C=CC(N)CCC(=O)O (centres unmarked) [vigabatrin]
patients with worsening of symptoms (Dravet syndrome patients [1]): ~60%
